Data: patent publication US20160272626A1, “PYRAZINE DERIVATIVES” (HOFFMANN-LA ROCHE INC., priority 2012, published 2016)
Structures can show the parent of a compound that is named as a salt.

How the values were obtained:
mouse TAAR1 = biological target: T1, mouse TAAR1 (Mus musculus, UniProt Q923Y8); assay: Radioligand binding assay on mouse TAAR1; settings: mouse TAAR1, HEK-293 membranes, first value of cell mouse/rat
T1 construct: expressed in transfected cells; membrane preparation
Protocol: (§1) For the construction of expression plasmids the coding sequences of human, rat and mouse TAAR 1 were amplified from genomic DNA essentially as described by Lindemann et al.. The Expand High Fidelity PCR System (Roche Diagnostics) was used with 1.5 mM Mg^2+ and purified PCR products were cloned into pCR2.1-TOPO cloning vector (Invitrogen) following the instructions of the manufacturer. PCR products were subcloned into the pIRESneo2 vector (BD Clontech, Palo Alto, Calif.), and expression vectors were sequence verified before introduction in cell lines.
(§2) HEK293 cells (ATCC # CRL-1573) were cultured essentially as described by Lindemann et al. (2005). For the generation of stably transfected cell lines HEK293 cells were transfected with the pIRESneo2 expression plasmids containing the TAAR coding sequences (described above) with Lipofectamine 2000 (Invitrogen) according to the instructions of the manufacturer, and 24 hrs post transfection the culture medium was supplemented with 1 mg/ml G418 (Sigma, Buchs, Switzerland). After a culture period of about 10 d clones were isolated, expanded and tested for responsiveness to trace amines (all compounds purchased from Sigma) with the cAMP Biotrak Enzyme immunoassay (EIA) System (Amersham) following the non-acetylation EIA procedure provided by the manufacturer.
Radioligand Binding Assay on Mouse TAAR1
(§3) Membrane Preparation and Radioligand Binding.
HEK-293 cells stably expressing mouse TAAR1 were maintained at 37° C. and 5% CO2 in DMEM high glucose medium, containing fetal calf serum (10%, heat inactivated for 30 min at 56° C.), penicillin/streptomycin (1%), and 375 μg/ml geneticin (Gibco). Cells were released from culture flasks using trypsin/EDTA, harvested, washed twice with ice-cold PBS (without Ca^2+ and Mg^2+), pelleted at 1,000 rpm for 5 min at 4° C., frozen and stored at −80° C. Frozen pellets were suspended in 20 ml HEPES-NaOH (20 mM, pH 7.4) containing 10 mM EDTA and homogenized with a Polytron (PT 6000, Kinematica) at 14,000 rpm for 20 s. The homogenate was centrifuged at 48,000×g for 30 min at 4° C. Subsequently, the supernatant was removed and discarded, and the pellet resuspended in 20 ml HEPES-NaOH (20 mM, pH 7.4) containing 0.1 mM EDTA using the Polytron (20 s at 14,000 rpm). This procedure was repeated and the final pellet resuspended in HEPES-NaOH containing 0.1 mM EDTA and homogenized using the Polytron. Typically, aliquots of 2 ml membrane portions were stored at −80° C. With each new membrane batch the dissociation constant (Kd) was determined via a saturation curve. The TAAR1 radioligand ^3[H]—(S)-4-[(ethyl-phenyl-amino)-methyl]-4,5-dihydro-oxazol-2-ylamine (described in WO 2008/098857) was used at a concentration equal to the calculated Kd value, that was usually around 0.7 nM, resulting in the binding of approximately 0.5% of the radioligand and a specific binding representing approximately 70% of the total binding. Nonspecific binding was defined as the amount of ^3[H]—(S)-4-[(ethyl-phenyl-amino)-methyl]-4,5-dihydro-oxazol-2-ylamine bound in the presence of 10 μM unlabeled ligand. All compounds were tested at a broad range of concentrations (10 pM to 10 μM) in duplicates. The test compounds (20 μl/well) were transferred into a 96 deep well plate (TreffLab), and 180 μl of HEPES-NaOH (20 mM, pH 7.4) containing MgCl2 (10 mM) and CaCl2 (2 mM) (binding buffer), 300 μl of the radioligand ^3[H]—(S)-4-[(ethyl-phenyl-amino)-methyl]-4,5-dihydro-oxazol-2-ylamine at a concentration of 3.3×Kd in nM and 500 μl of the membranes (resuspended at 60 μg protein per ml) added. The 96 deep well plates were incubated for 1 hr at 4° C. Incubations were terminated by rapid filtration through Unifilter-96 plates (Packard Instrument Company) and glass filters GF/C (Perkin Elmer) presoaked for 1 hr in polyethylenimine (0.3%) and washed 3 times with 1 ml of cold binding buffer. […]

rat TAAR1 = biological target: T2, rat TAAR1 (Rattus norvegicus, UniProt Q923Y9); assay: Radioligand binding assay on rat TAAR1; settings: rat TAAR1, HEK-293 membranes, second value of cell mouse/rat
T2 construct: expressed in transfected cells; membrane preparation
T2 sequence (Q923Y9 whole entry): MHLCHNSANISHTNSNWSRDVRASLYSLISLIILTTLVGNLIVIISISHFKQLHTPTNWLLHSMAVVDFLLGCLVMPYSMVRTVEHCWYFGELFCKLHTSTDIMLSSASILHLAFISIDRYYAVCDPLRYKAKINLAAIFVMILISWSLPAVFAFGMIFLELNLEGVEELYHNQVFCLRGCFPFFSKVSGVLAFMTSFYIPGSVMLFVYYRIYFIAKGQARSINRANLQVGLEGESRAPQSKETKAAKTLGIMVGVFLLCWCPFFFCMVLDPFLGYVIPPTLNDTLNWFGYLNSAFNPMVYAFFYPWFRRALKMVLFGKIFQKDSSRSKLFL
Protocol: as §1, §2
Radioligand Binding Assay on Rat TAAR1
as §3
HEK-293 cells stably expressing rat TAAR1 were maintained at 37° C. and 5% CO2 in DMEM high glucose medium, containing fetal calf serum (10%, heat inactivated for 30 min at 56° C.), penicillin/streptomycin (1%), and 375 μg/ml geneticin (Gibco). Cells were released from culture flasks using trypsin/EDTA, harvested, washed twice with ice-cold PBS (without Ca^2+ and Mg^2+), pelleted at 1,000 rpm for 5 min at 4° C., frozen and stored at −80° C. Frozen pellets were suspended in 20 ml HEPES-NaOH (20 mM, pH 7.4) containing 10 mM EDTA and homogenized with a Polytron (PT 6000, Kinematica) at 14,000 rpm for 20 s. The homogenate was centrifuged at 48,000×g for 30 min at 4° C. Subsequently, the supernatant was removed and discarded, and the pellet resuspended in 20 ml HEPES-NaOH (20 mM, pH 7.4) containing 0.1 mM EDTA using the Polytron (20 s at 14,000 rpm). This procedure was repeated and the final pellet resuspended in HEPES-NaOH containing 0.1 mM EDTA and homogenized using the Polytron. Typically, aliquots of 2 ml membrane portions were stored at −80° C. With each new membrane batch the dissociation constant (Kd) was determined via a saturation curve. […] Nonspecific binding was defined as the amount of ^3[H]—(S)-4-[(ethyl-phenyl-amino)-methyl]-4,5-dihydro-oxazol-2-ylamine bound in the presence of 10 μM unlabeled ligand. All compounds were tested at a broad range of concentrations (10 pM to 10 μM) in duplicates. The test compounds (20 μl/well) were transferred into a 96 deep well plate (TreffLab), and 180 μl of HEPES-NaOH (20 mM, pH 7.4) containing MgCl2 (10 mM) and CaCl2 (2 mM) (binding buffer), 300 μl of the radioligand ^3[H]—(S)-4-[(ethyl-phenyl-amino)-methyl]-4,5-dihydro-oxazol-2-ylamine at a concentration of 3.3×Kd in nM and 500 μl of the membranes (resuspended at 50 μg protein per ml) added. The 96 deep well plates were incubated for 1 hr at 4° C. Incubations were terminated by rapid filtration through Unifilter-96 plates (Packard Instrument Company) and glass filters GF/C (Perkin Elmer) presoaked for 1 hr in polyethylenimine (0.3%) and washed 3 times with 1 ml of cold binding buffer. After addition of 45 μl of Microscint 40 (PerkinElmer) the Unifilter-96 plate was sealed and after 1 hr the […] counted using a TopCount Microplate Scintillation Counter (Packard Instrument Company).

T1 sequence (Q923Y8 whole entry): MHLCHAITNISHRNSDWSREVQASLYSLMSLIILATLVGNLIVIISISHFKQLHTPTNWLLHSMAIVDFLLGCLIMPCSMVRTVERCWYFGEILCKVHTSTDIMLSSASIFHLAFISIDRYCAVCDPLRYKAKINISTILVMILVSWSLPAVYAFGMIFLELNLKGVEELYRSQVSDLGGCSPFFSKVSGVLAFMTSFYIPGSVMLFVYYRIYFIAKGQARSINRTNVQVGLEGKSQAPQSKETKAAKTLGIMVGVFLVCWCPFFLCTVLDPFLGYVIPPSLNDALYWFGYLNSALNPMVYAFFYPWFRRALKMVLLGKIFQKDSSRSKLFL

Row | Structure (SMILES) | Ki (mouse TAAR1) | Ki (rat TAAR1)
1 | N#Cc1cc(NC(=O)c2cncc(C(F)(F)F)n2)ccc1[C@@H]1CNCCO1 [Example 4, (R)—N-(3-Cyano-4-(morpholin-2-yl)phenyl)-6-(trifluoromethyl)pyrazine-2-carboxamide hydrochloride] | 0.0833 µM | 0.0344 µM
2 | O=C(Nc1ccc([C@H]2CNCCO2)cc1F)c1cnc(C2CC2)cn1 [Example 19, (S)-5-Cyclopropyl-N-(2-fluoro-4-(morpholin-2-yl)phenyl)pyrazine-2-carboxamide] | 0.0061 µM | 0.235 µM
3 | O=C(Nc1ccc([C@H]2CNCCO2)c(F)c1)c1cnc(OCC2CCC2)cn1 [Example 11, (S)-5-(Cyclobutylmethoxy)-N-(3-fluoro-4-(morpholin-2-yl)phenyl)pyrazine-2-carboxamide hydrochloride] | 0.0046 µM | 0.0119 µM
4 | O=C(Nc1ccc([C@H]2CNCCO2)c(F)c1)c1cnc(N2CC(F)(F)C2)cn1 [Example 16, 5-(3,3-Difluoro-azetidin-1-yl)-pyrazine-2-carboxylic acid ((S)-3-fluoro-4-morpholin-2-yl-phenyl)-amide hydrochloride] | 0.0193 µM | 0.191 µM
5 | CC(C)c1cncc(C(=O)Nc2ccc([C@H]3CNCCO3)cc2F)n1 [Example 22, 6-Isopropyl-pyrazine-2-carboxylic acid ((S)-2-fluoro-4-morpholin-2-yl-phenyl)-amide] | 0.0522 µM | 0.391 µM
6 | O=C(Nc1ccc([C@H]2CNCCO2)c(F)c1)c1cnc(OCC2CC2)cn1 [Example 12, (S)-5-(Cyclopropylmethoxy)-N-(3-fluoro-4-(morpholin-2-yl)phenyl)pyrazine-2-carboxamide hydrochloride] | 0.0045 µM | 0.04 µM
7 | O=C(Nc1ccc([C@@H]2CNCCO2)cc1F)c1cnc(C2CC2)cn1 [Example 20, (R)-5-Cyclopropyl-N-(2-fluoro-4-(morpholin-2-yl)phenyl)pyrazine-2-carboxamide] | 0.0099 µM | 0.0708 µM
8 | O=C(Nc1ccc([C@H]2CNCCO2)c(F)c1)c1cncc(C(F)(F)F)n1 [Example 5, (S)—N-(3-Fluoro-4-(morpholin-2-yl)phenyl)-6-(trifluoromethyl)pyrazine-2-carboxamide hydrochloride] | 0.038 µM | 0.054 µM
9 | O=C(Nc1ccc([C@@H]2CNCCO2)cc1F)c1cnc(OCC(F)(F)F)cn1 [Example 27, (R)—N-(2-Fluoro-4-(morpholin-2-yl)phenyl)-5-(2,2,2-trifluoroethoxy)pyrazine-2-carboxamide] | 0.0059 µM | 0.0183 µM
10 | N#Cc1cc(NC(=O)c2cnc(C(F)(F)F)cn2)ccc1[C@@H]1CNCCO1 [Example 2, (R)—N-(3-Cyano-4-(morpholin-2-yl)phenyl)-5-(trifluoromethyl)pyrazine-2-carboxamide hydrochloride] | 0.0184 µM | 0.0186 µM
11 | COc1cnc(C(=O)Nc2ccc([C@H]3CNCCO3)c(F)c2)cn1 [Example 10, (S)—N-(3-Fluoro-4-(morpholin-2-yl)phenyl)-5-methoxypyrazine-2-carboxamide hydrochloride] | 0.0136 µM | 0.54 µM
12 | COc1cncc(C(=O)Nc2ccc([C@H]3CNCCO3)c(F)c2)n1 [Example 9, (S)—N-(3-Fluoro-4-(morpholin-2-yl)phenyl)-6-methoxypyrazine-2-carboxamide hydrochloride] | 0.0314 µM | 0.247 µM
13 | Cc1ccc2ncc(C(=O)Nc3ccc([C@H]4CNCCO4)c(F)c3)nc2c1 [Example 15, 7-Methyl-quinoxaline-2-carboxylic acid ((S)-3-fluoro-4-morpholin-2-yl-phenyl)-amide hydrochloride] | 0.0068 µM | 0.0131 µM
14 | O=C(Nc1ccc([C@H]2CNCCO2)c(F)c1)c1cncc(OCC(F)(F)F)n1 [Example 26, (S)—N-(3-Fluoro-4-(morpholin-2-yl)phenyl)-6-(2,2,2-trifluoroethoxy)pyrazine-2-carboxamide] | 0.0167 µM | 0.0032 µM

The remaining compounds from weak to strong by Ki (mouse TAAR1), led by results:

Row | Ki (mouse TAAR1) | Ki (rat TAAR1) | Structure (SMILES)
15 | 0.147 µM | 0.068 µM | COc1cncc(C(=O)Nc2ccc([C@@H]3CNCCO3)c(F)c2)n1 [Example 7, (R)—N-(3-Fluoro-4-(morpholin-2-yl)phenyl)-6-methoxypyrazine-2-carboxamide hydrochloride]
16 | 0.0292 µM | 0.0035 µM | O=C(Nc1ccc([C@@H]2CNCCO2)c(F)c1)c1cncc(OCC(F)(F)F)n1 [Example 30, (R)—N-(3-Fluoro-4-(morpholin-2-yl)phenyl)-6-(2,2,2-trifluoroethoxy)pyrazine-2-carboxamide]
17 | 0.0181 µM | 0.0849 µM | CC(C)c1cncc(C(=O)Nc2ccc([C@H]3CNCCO3)c(F)c2)n1 [Example 21, 6-Isopropyl-pyrazine-2-carboxylic acid ((S)-3-fluoro-4-morpholin-2-yl-phenyl)-amide]
18 | 0.0107 µM | 0.0476 µM | COc1cnc(C(=O)Nc2ccc([C@@H]3CNCCO3)c(F)c2)cn1 [Example 8, (R)—N-(3-Fluoro-4-(morpholin-2-yl)phenyl)-5-methoxypyrazine-2-carboxamide hydrochloride]
19 | 0.0072 µM | 0.0076 µM | O=C(Nc1ccc([C@@H]2CNCCO2)c(F)c1)c1cnc(C2CC2)cn1 [Example 17, 5-Cyclopropyl-pyrazine-2-carboxylic acid ((R)-3-fluoro-4-morpholin-2-yl-phenyl)-amide hydrochloride]
20 | 0.0042 µM | 0.0202 µM | O=C(Nc1ccc([C@H]2CNCCO2)c(F)c1)c1cnc(OCC(F)(F)F)cn1 [Example 24, (S)—N-(3-Fluoro-4-(morpholin-2-yl)phenyl)-5-(2,2,2-trifluoroethoxy)pyrazine-2-carboxamide]
